Data on 24 compounds can be found in patent publication US6080871A, “Sulfonamides and sulfamides as H3 receptor antagonists” (James Black Foundation Limited, priority 1996, dated 2000).

One assay concerns the target T1, H3 receptor (Cavia porcellus, UniProt Q9JI35).
T1 construct: the longitudinal muscle layer and adhering myenteric plexus was teased away; from tissue; host or cells: ileal longitudinal muscle with adhering myenteric plexus of male Dunkin-Hartley guinea pigs
Description: H3 receptor bioassay (functional assay), guinea pig ileal longitudinal muscle myenteric plexus. The assay is classed as cell-based. As to conditions: antagonism of R-(α)-methylhistamine E/[A] curve, Schild's methods; electrically stimulated guinea pig ileum; variance ±0.15 log units; read-out: pKB (functional assay) (converted). Here is the method: The biological activity of the compounds of the examples was measured using the ileal longitudinal muscle, myenteric plexus assay described by Paton and Aboo Zar (J. Physiol. 194, 13-33 (1968)). Male Dunkin-Hartley guinea pigs (250-300 g) were employed. Briefly, a 50 cm portion of ileum proximal to the caecum was removed, after discarding the terminal 20 cm. Ileal segments (3 cm) were cleaned by passing Krebs-Henseleit buffer containing 3 μM mepyramine gently through the ileum using a Pasteur pipette (size: 13.8 cm length, 0.65 cm diameter). To avoid unnecessary damage to the tissue, Krebs-Henseleit buffer was passed through the ileal segment, while it was lying horizontally on a petri dish. Therefore, the ileum was not over-distended and the buffer flowed through with ease. Each segment was then passed over a Pasteur pipette and the longitudinal muscle layer and adhering myenteric plexus was teased away using moist cotton wool, by stroking tangentially away from the mesenteric attachment. The tissues were suspended in 20 ml organ baths containing Krebs-Henseleit buffer at 37±1° C. and gassed with […]. The tissues were ligated to two parallel stainless steel wires, situated between two platinum electrodes (0.76 cm length, 0.06 cm diameter). All measurements were recorded isometrically (Grass FTO3 transducer). Following an initial loading tension of 1 g, the tissues were stimulated with electrical pulses at a frequency of 0.1 Hz and a pulse duration of 0.5msec, as described by Kosterlitz & Watt (1968). Initially, the tissues were stimulated at supramaximal (1.3 fold times maximal) voltage for a period of 30 min and then the tissues were washed and re-stimulated. A "sighter dose" of the selective histamine H3 -receptor agonist, R-(α)-methylhistamine(0.3 μM) (Arrang et al., 1987), was administered. Upon generation of response, the "sighter dose" was removed from the tissues by "washout" (6 washes over 60 min) and during this period the electrical stimulation was switched off. The tissues were then re-stimulated and allowed to stabilise prior to the addition of drug treatments, which were allocated on a randomised block basis to the organ baths. Following the incubation period, a single cumulative E/[A] curve was obtained. The experimental E/[A] curve data was expressed as the percentage inhibition of the peak height of electrically-stimulated contraction. Antagonist affinity values were calculated from the degree of rightward shift of the R-(α)-methylhistamine E/[A] curves using Schild's methods (Arunlatcshama & Schild, 1949).
(§1) Typical variance in the functional assay is ±0.15 log units. Typical variance in the binding assay is ±0.12 log units. This means that if the discrepancy between the two assays is greater than about 0.5 log units, then this difference on average is significant.

The target in a further assay is T2, Histamine H3 (Cavia porcellus, UniProt Q9JI35).
T2 construct: ileum longitudinal muscle myenteric plexus membranes; from tissue; host or cells: ileum longitudinal muscle myenteric plexus membranes of male Dunkin Hartley guinea pigs
Description: Histamine H3 radioligand binding assay, [3H]-R-α-methylhistamine, guinea pig ileum longitudinal muscle myenteric plexus membranes. As to conditions: 3 nM [3H]-R-α-methylhistamine, 165 min, 21±3° C., Cheng Prusoff, variance ±0.12 log units; for Ki: read-out: pK1 (binding assay) (converted). The protocol: Histamine H3 Radioligand Binding Assay
Male Dunkin Hartley guinea pigs (200-300 g) were used. The small intestine was rapidly removed (cut ~5 cm from caecum and 5 cm from stomach) and placed in ice-cold 20 mM Hepes-NaOH buffer (pH7.4 at 21±3° C.). The tissue was cut into ~10 cm segments, flushed through with ice-cold 20 mM Hepes-NaOH buffer and placed in a beaker containing fresh buffer at 4° C. 10 cm segments of ileum were threaded onto a glass pipette and the longitudinal muscle myenteric plexus was peeled away from the circular muscle using damp cotton-wool. Longitudinal muscle myenteric plexus was immediately placed in ice-cold Viaspan® solution (~100 ml for tissue from 3 guinea pigs) and placed in the refrigerator for 24 hours.
Pre-soaked tissue was weighed and minced with scissors. The tissue was then homogenised in Viaspan® using a polytron (Kinematica AG; PT-DA 3020/2TS, 3×~1-2 s). 50 ml of 500 mM Tris HCl (pH6.9 at 21±3° C.) was added to the tissue and the mixture centrifuged at 39,800×g for 12 min at 4° C. The supernatant was discarded and rehomogenised in 100 ml ice-cold 20 mM Hepes-NaOH buffer (pH7.4 at 21±3° C.) using a teflon-in-glass homogeniser (setting 10; 3×). The homogenate was recentrifuged at 39,800×g and the pellet resuspended in 20 mM Hepes-NaOH buffer (pH7.4 at 21±3° C.), to a tissue concentration of 50 mg.ml^-1, using a polytron (Brinkman, PT10, 3×~1 s).
Guinea pig ileum longitudinal muscle myenteric plexus membranes (400 μl) were incubated for 165 min at 21±3° C. in a final volume of 500 μl with 20 mM Hepes-NaOH buffer containing [^3 H]-R-α-methylhistamine (50 μl; 3 nM) and competing compound. Total and non-specific binding of [^3 H]-R-α-methylhistamine were defined using 50 μl of buffer and 50 μl of 10 μM thioperamide, respectively. The assay was terminated by rapid filtration through Whatman GF/B filters, presoaked (2 hr) in 0. 1% polyethyleneimine,using a Brandell Cell Harvester. The filters were washed (3×3 ml) with ice-cold 50 mM Tris-HCl (pH6.9 at 21±3° C.), transferred into scintillation vials, 5 ml liquid scintillation cocktail was added and after 4 hours the bound radioactivity was determined by counting (4 min) in a Beckman liquid scintillation counter.
Data are analysed using GraphPad prism and the general equation for a competition curve with variable Hill slope (nH).
Y=Non-specific binding+(Total binding-Non-specific binding)/1+10^((logIC.sbsp.50^-X).n.sbsp.H^)
X is the log concentration of competing compound, Y is the binding obtained at each concentration of X, pIC50 is the concentration of the competitor required to compete for half of the specific binding.
The IC50 is converted to the K1 using the Cheng Prusoff equation, […]
IC50 is the concentration of competitor required to compete for half the specific binding, L is the radioligand concentration used, KD is the equilibrium dissociation constant for the radioligand determined by saturation experiments.
as §1

Bounds are passed on as bounds.

T1 sequence (Q9JI35 whole entry): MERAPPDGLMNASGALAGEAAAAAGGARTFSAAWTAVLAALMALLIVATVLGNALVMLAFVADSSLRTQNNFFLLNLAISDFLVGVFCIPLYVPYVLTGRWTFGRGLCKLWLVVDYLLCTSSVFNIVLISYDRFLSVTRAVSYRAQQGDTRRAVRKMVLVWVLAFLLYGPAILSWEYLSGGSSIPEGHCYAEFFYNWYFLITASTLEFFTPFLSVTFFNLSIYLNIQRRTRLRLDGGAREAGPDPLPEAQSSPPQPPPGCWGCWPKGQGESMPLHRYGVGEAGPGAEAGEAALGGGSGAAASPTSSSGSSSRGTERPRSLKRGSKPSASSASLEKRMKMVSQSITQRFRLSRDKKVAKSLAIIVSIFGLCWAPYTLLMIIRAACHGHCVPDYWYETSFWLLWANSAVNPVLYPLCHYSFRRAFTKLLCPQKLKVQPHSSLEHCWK
T2 sequence (Q9JI35 whole entry): as above

Take `O=S(=O)(NCCCCc1c[nH]cn1)c1ccc2ccccc2c1` [Example 7, N-[4-(4(5)-Imidazoyl)butyl]-2-naphthalenesulfonamide]: the Kb on H3 receptor was 155 nM. Moreover, the “pK1 (binding assay)” value at Histamine H3 is 7.42.
With `O=S(=O)(NCCCCCCc1c[nH]cn1)c1ccc2ccccc2c1` [Example 8], the Kb at H3 receptor was 77.6 nM. The “pK1 (binding assay)” value at Histamine H3 is 7.49.
Consider `O=S(=O)(Cc1ccc(Cl)cc1)NCCCCCc1c[nH]cn1` [Example 9, N-[5-(4(5)-Imidazoyl)pentyl]-(4-chlorophenyl)methanesulfonamide], for which the Kb on H3 receptor is 46.8 nM. Besides, the “pK1 (binding assay)” value at Histamine H3 amounted to 7.94.
Consider `O=S(=O)(Cc1ccc(Cl)cc1)NCCCCc1c[nH]cn1` [Example 10, N-[4-(4(5)-Imidazoyl)butyl]-(4-chlorophenyl)methanesulfonamide], for which the Kb on H3 receptor was 2.4 nM. For the same compound, the “pK1 (binding assay)” value on Histamine H3 was 8.53.
For `O=S(=O)(Cc1ccc(Cl)cc1)NCCCCCCc1c[nH]cn1` [Example 11, N-[6-(4(5)-Imidazoyl)hexyl]-(4-chlorophenyl)methanesulfonamide], in that order: 9.77 nM and 7.95.
For `O=S(=O)(NCCCCCc1c[nH]cn1)NCc1ccc(Cl)cc1` [Example 12, N-[5-(4(5)-Imidazoyl)pentyl]-N'-(4-chlorophenyl)methyl-sulfamide] the same measures were 6.31 nM and 8.23.
Turning to `O=S(=O)(NCCCCc1c[nH]cn1)NCc1ccc(Cl)cc1` [Example 13, N-[4-(4(5)-Imidazoyl)butyl]-N'-(4-chlorophenyl)methyl-sulfamide], on H3 receptor, the Kb was 2.09 nM. Moreover, the “pK1 (binding assay)” value on Histamine H3 turned out to be 8.56.
With `O=S(=O)(NCCCc1c[nH]cn1)NCc1ccc(Cl)cc1` [Example 14, N-[3-(4(5)-Imidazoyl)propyl]-N'-(4-chlorophenyl)methyl-sulfamide], the Kb on H3 receptor was 91.2 nM. For the same compound, at Histamine H3, the “pK1 (binding assay)” value stood at 7.28.
Consider `O=S(=O)(NCCCCCCc1c[nH]cn1)NCc1ccc(Cl)cc1` [Example 15, N-[6-(4(5)-Imidazoyl)hexyl]-N'-(4-chlorophenyl)methyl-sulfamide], for which, on H3 receptor, the Kb was 1.7 nM. Also, at Histamine H3, the “pK1 (binding assay)” value stood at 8.36.
Regarding `O=S(=O)(Cc1ccc2ccccc2c1)NCCc1c[nH]cn1` [Example 19, N-[2-(4(5)-Imidazoyl)ethyl]-2-naphthylmethanesulfonamide], the Kb on H3 receptor is above 10000 nM. Besides, at Histamine H3, the Ki is 1120 nM.
Turning to `O=S(=O)(/C=C/c1ccccc1)NCCc1c[nH]cn1` [Example 20, (E)-N-[2-(4(5)-Imidazoyl)ethyl]-2-phenylethenesulfonamide], on H3 receptor, the Kb is above 3160 nM. For the same compound, the “pK1 (binding assay)” value on Histamine H3 is listed as 7.26.
For `O=S(=O)(CCC1CCCCC1)NCCc1c[nH]cn1` [Example 23, N-[2-(4(5)-Imidazoyl)ethyl]-2-cyclohexylethanesulfonamide] the same measures were 1350 nM and 7.55.
`O=S(=O)(NCCCCCCCc1c[nH]cn1)c1ccc2ccccc2c1` [Example 29]: at H3 receptor, the Kb is 132 nM. Moreover, the “pK1 (binding assay)” value on Histamine H3 is on record as 7.40.
`O=S(=O)(NCCCCCCCCc1c[nH]cn1)c1ccc2ccccc2c1` [Example 30, N-[8-(4(5)-Imidazoyl)octyl]-2-naphthalenesulfonamide]: on H3 receptor, the Kb was 240 nM. Besides, the “pK1 (binding assay)” value at Histamine H3 was 6.97.
For the compound `O=S(=O)(NCCCCCCCCCCc1c[nH]cn1)c1ccc2ccccc2c1` [Example 31, N-[10-(4(5)-Imidazoyl)decyl]-2-naphthalenesulfonamide], the Kb on H3 receptor was 1620 nM. Also, the “pK1 (binding assay)” value at Histamine H3 came out at 7.07.
For the compound `O=S(=O)(Cc1ccc(Cl)cc1)NCCCCCCCc1c[nH]cn1` [Example 32, N-[7-(4(5)-Imidazoyl)heptyl]-(4-chlorophenyl)methanesulfonamide], the Kb on H3 receptor was 43.7 nM. In addition, at Histamine H3, the “pK1 (binding assay)” value was determined as 7.44.
For `O=S(=O)(Cc1ccc(Cl)cc1)NCCCCCCCCc1c[nH]cn1` [Example 33, N-[8-(4(5)-Imidazoyl)octyl]-(4-chlorophenyl)methanesulfonamide] the same measures were 229 nM and 7.27.
For `O=S(=O)(NCCCCCCCc1c[nH]cn1)NCc1ccc(Cl)cc1` [Example 38, N-[7-(4(5)-Imidazoyl)heptyl]-N'-(4-chlorophenyl)methyl-sulfamide], the Kb at H3 receptor is 4.27 nM. For the same compound, the “pK1 (binding assay)” value on Histamine H3 came out at 8.15.
`O=S(=O)(NCCCCCCCCc1c[nH]cn1)NCc1ccc(Cl)cc1` [Example 39, N-[8-(4(5)-Imidazoyl)octyl]-N'-(4-chlorophenyl)methyl-sulfamide]: at H3 receptor, the Kb was 42.7 nM. Further, the Ki on Histamine H3 was 15.8 nM.
Consider `O=S(=O)(NCCCCc1c[nH]cn1)NCc1ccc(Cl)c(Cl)c1` [Example 41, N-[4-(4(5)-Imidazoyl)butyl]-N'-(3,4-dichlorophenyl)methyl-sulfamide], for which the Kb at H3 receptor is 3.89 nM. In addition, the Ki at Histamine H3 was 4.27 nM.
Consider `O=S(=O)(NCCCCc1c[nH]cn1)NCc1cccc(Cl)c1` [Example 42, N-[4-(4(5)-Imidazoyl)butyl]-N'-(3-chlorophenyl)methyl-sulfamide], for which, on H3 receptor, the Kb is 13.8 nM. The Ki at Histamine H3 was 16.2 nM.
In the case of `O=S(=O)(NCCCCc1c[nH]cn1)NCc1ccccc1Cl` [Example 43, N-[4-(4(5)-Imidazoyl)butyl]-N'-(2-chlorophenyl)methyl-sulfamide], the Kb at H3 receptor is 380 nM. Further, at Histamine H3, the Ki was 56.2 nM.
`O=S(=O)(NCCCCc1c[nH]cn1)NCc1ccc(I)cc1` [Example 44, N-[4-(4(5)-Imidazoyl)butyl]-N'-(4-iodophenyl)methyl-sulfamide]: the Kb at H3 receptor was 3.24 nM. For the same compound, the “pK1 (binding assay)” value at Histamine H3 was 8.68.
As for `O=S(=O)(NCCCCc1c[nH]cn1)NCc1ccc(Br)cc1` [Example 45, N-[4-(4(5)-Imidazoyl)butyl]-N'-(4-bromophenyl)methyl-sulfamide], the Kb at H3 receptor is 1.23 nM. For the same compound, on Histamine H3, the “pK1 (binding assay)” value is reported as 8.71.
